Measured values from article PMC5469451, “Identification of compounds that suppress Toxoplasma gondii tachyzoites and bradyzoites” (PLoS ONE, 2017).
Like-named read-outs stand apart in the source and are kept apart here. Where a SMILES comes first, the peptide text is derived from it. The star is where a group is joined. Boc = CC(C)(C)OC(=O)*

How the values were obtained:
[1] = test system: PLK/DLUC_1C9 tachyzoites in Vero cells; experiment: Primary screening: T. gondii growth assay, Renilla luciferase; format: cell-based, Toxoplasma gondii; conditions: 48 h; for inhibition at 10 µM: Toxoplasma gondii, read-out: Parasite Inhibition (%)
Method: In the primary screening, purified PLK/DLULC_1C9 tachyzoites were incubated with Vero cells at a multiplicity of infection (MOI) of 0.5. After a 2-h incubation, the infected host cells were trypsinized to obtain a cell suspension and then these suspended infected cells were inoculated into 96-well optical bottom plates containing the compound library. Each well was inoculated with 2500 cells in 25 μL of culture medium. […] Following cell inoculation, each well therefore contained 0.5% DMSO and 10 μM compound. After 48 h of culture, Renilla luciferase activity was measured by using Renilla-Glo (Promega, WI, USA) following the manufacturer’s instructions. […] The Z’-value for each plate was calculated from the Renilla luciferase activity in the negative and positive control wells.

[2] = Host cell cytotoxicity assay (Cell-Titer Glo), Vero cells; format: cell-based; conditions: African green monkey
Method: (§1) Host cells were treated with compounds at the same concentration used for screening (i.e., 0.5% DMSO and 10 μM compound). Vero cells and HFF cells were both used as host cells because both cell types were used for the parasite screening. After incubation for 48 h in DMEM supplemented with 5% FBS, L-glutamine, penicillin, and streptomycin, cell viabilities were measured by using a Cell-Titer Glo kit (Promega) following the manufacturer’s instructions. Control wells were treated with DMSO alone in culture medium to calculate the 100% viability for each cell type.

[3] = test system: RH-2F tachyzoites (type I strain) in HFF cells; experiment: Confirmatory screening: RH-2F β-galactosidase growth assay in HFF cells; format: cell-based, Toxoplasma gondii; conditions: 48 h, 48 h; for inhibition at 2.5 µM / inhibition at 25 µM: Toxoplasma gondii, read-out: Parasite inhibition (%)
Method: In the confirmatory screening, we utilize an RH strain β-galactosidase reporter parasite termed RH-2F (a type I strain). Briefly, RH-2F parasites were purified from freshly lysed infected host cells and used to infect confluent HFF cells cultured in 96-well plates. Five hundred parasites were added to each well, along with each test compound and 50 μL of culture medium. Plates were then incubated for 10 min at room temperature followed by an incubation at 37°C for 48 h in a CO2 incubator.
To measure the effects of tanshinone IIA and hydroxyzine on intracellular parasite growth, parasites were allowed to invade for 2 h, uninvaded parasites were washed away, and medium with compounds was added. After 48 h, the plates were frozen at -80°C. Plates were then thawed just prior to the measurement of beta-galactosidase activity. Beta-Glo (Promega) was used to measure β-galactosidase activity following the manufacturer’s instructions.

[4] = Host cell cytotoxicity assay (Cell-Titer Glo), HFF cells; format: cell-based, human; conditions: human
Method: as §1, with “Vero” for “Host cells were treated with compounds at the same concentration used for screening (i.e., 0.5% DMSO and 10 μM compound). Vero”

Vero cells = experiment: Host cell cytotoxicity assay (Cell-Titer Glo), Vero cells; format: cell-based
Method: as §1

HFF cells = experiment: Host cell cytotoxicity assay (Cell-Titer Glo), HFF cells; format: cell-based, human
Method: as §1, with “Vero” for “Host cells were treated with compounds at the same concentration used for screening (i.e., 0.5% DMSO and 10 μM compound). Vero”

[5] = 10 μM, PLK/DLUC_1C9 in Vero cells, DMSO = 0%, 10 μM pyrimethamine = 100%
[6] = HFF, 2.5 μM, RH-2F in HFF, compared with 10 μM pyrimethamine
[7] = HFF, 25 μM, RH-2F in HFF, compared with 10 μM pyrimethamine
[8] = 10 μM, 48 h, Vero cells, DMSO = 100%
[9] = 2.5 μM, RH-2F in HFF, compared with 10 μM pyrimethamine
[10] = 25 μM, RH-2F in HFF, compared with 10 μM pyrimethamine
[11] = 25 μM, 48 h, HFF cells, compared with DMSO
[12] = 10 μM, 48 h, Vero cells, DMSO = 100%, read-out: Host Viability (%)

Compound `Nc1ccccc1NC(=O)c1ccc(CNC(=O)OCc2cccnc2)cc1` [Entinostat] has an inhibition at 10 µM [1, 5] of 91%, a viability at 48 h, 10 µM [2] of 83% and an inhibition at 2.5 µM [3, 6] of -20%. It also gave an inhibition at 25 µM [3, 7] of 60%, a viability at 48 h, 2.5 µM ([4]; Host cell viability (%)) of 92% and a viability at 48 h, 25 µM ([4]; Host cell viability (%)) of 91%.

Compound `O=c1[nH]c2ccccc2n1CCCN1CCC(n2c(=O)[nH]c3cc(Cl)ccc32)CC1` [Domperidone] has an inhibition at 10 µM ([1]; Vero) of 93%, a viability at 48 h, 10 µM [2] of 94% and an inhibition at 2.5 µM [3, 6] of -7.2%. It also gave an inhibition at 25 µM ([3]; HFF) of 77%, a viability at 48 h, 2.5 µM ([4]; Host cell viability (%)) of 94% and a viability at 48 h, 25 µM ([4]; Host cell viability (%)) of 83%.

In the case of `CCCCC/C=C\C/C=C\C/C=C\C/C=C\CCCC(=O)Nc1ccc(O)cc1` [AM404], the “Parasite inhibition (%)” value [1, 5] is reported as 103%, the “Host Viability (%)” value (Vero cells; [8]) is reported as 100% and the “Parasite inhibition (%)” value [3, 9] is reported as -11%. The “Parasite inhibition (%)” value [3, 10] was 59%, the “Host cell viability (%)” value (HFF cells; 2.5 μM, 48 h, HFF cells) was 93% and the “Host cell viability (%)” value (HFF cells; [11]) was 86%.

With `COC(=O)C1=C(C)NC(C)=C(C(=O)OCCCN2CCC(c3ccccc3)(c3ccccc3)CC2)[C@H]1c1cccc([N+](=O)[O-])c1` [Niguldipine] the inhibition at 10 µM ([1]; Vero) was 103%, the viability at 10 µM [2] was 77% and the inhibition at 2.5 µM ([3]; HFF) was -19%. It also gave an inhibition at 25 µM ([3]; HFF) of 96%, a viability at 2.5 µM [4] of 99% and a viability at 25 µM [4] of 84%.

Work on `COc1ccc(S(=O)(=O)N(CC(=O)NO)CC(C)C)cc1` [N-Hydroxy-N2-isobutyl-N2-[(4-methoxyphenyl)sulfonyl]glycinamide] yielded an inhibition at 10 µM ([1]; Vero) of 101% and a viability at 10 µM [2, 12] of 98%.

For `O=C1[C@H]2CCCC[C@H]2C(=O)N1CCCCN1CCN(c2nsc3ccccc23)CC1` [Perospirone], the inhibition at 10 µM [1, 5] was 100%, the viability at 48 h, 10 µM [2] was 96% and the inhibition at 2.5 µM [3, 6] was 4.5%. For the same compound, the inhibition at 25 µM [3, 7] was 59%, the viability at 48 h, 2.5 µM ([4]; Host cell viability (%)) was 102% and the viability at 48 h, 25 µM ([4]; Host cell viability (%)) was 101%.

`OC(c1cc(C(F)(F)F)nc2c(C(F)(F)F)cccc12)C1CCCCN1` (centres unmarked) [Mefloquine] showed an inhibition at 10 µM [1, 5] of 101%, a viability at 48 h, 10 µM [2] of 87% and an inhibition at 2.5 µM [3, 9] of 6.5%. For the same compound, the inhibition at 25 µM [3, 10] was 113%, the viability at 48 h, 2.5 µM ([4]; Host cell viability (%)) was 94% and the viability at 48 h, 25 µM ([4]; Host cell viability (%)) was 48%.

`CCN(CC)CCNc1ccc(CO)c2sc3ccccc3c(=O)c12` [Hycanthone] gave an inhibition at 10 µM [1, 5] of 97% and a viability at 48 h, 10 µM [2] of 82%.

With `CC(C)C[C@H]1C(=O)N2CCC[C@H]2[C@]2(O)O[C@](NC(=O)[C@@H]3C=C4c5cccc6[nH]c(Br)c(c56)C[C@H]4N(C)C3)(C(C)C)C(=O)N12` [Bromocriptine] the inhibition at 10 µM [1, 5] was 105%, the viability at 48 h, 10 µM [2, 12] was 85% and the inhibition at 2.5 µM [3, 9] was -8%. For the same compound, the inhibition at 25 µM [3, 10] was 110%, the viability at 48 h, 2.5 µM ([4]; HFF cells, 2.5 μM, 48 h, HFF cells, read-out: Host cell viability (%)) was 98% and the viability at 48 h, 25 µM ([4]; HFF cells, 25 μM, 48 h, HFF cells, compared with DMSO, read-out: Host cell viability (%)) was 93%.

In the case of `CC(C)(C)c1ccc(C(O)CCCN2CCC(C(O)(c3ccccc3)c3ccccc3)CC2)cc1` (racemic) [(±)-Terfenadine], the “Parasite inhibition (%)” value [1, 5] is reported as 104%, the “Host Viability (%)” value (Vero cells; 10 µM) is reported as 85% and the “Parasite inhibition (%)” value [3, 9] is reported as -12%. The “Parasite inhibition (%)” value [3, 10] was 96%, the “Host cell viability (%)” value (HFF cells; 2.5 µM) was 96% and the “Host cell viability (%)” value (HFF cells; 25 µM) was 0.1%.

With `CC(C)[C@H](NC(=O)CNC(=O)OC(C)(C)C)C(=O)N[C@H](C=O)C(C)C` [N-{[(2-Methyl-2-propanyl)oxy]carbonyl}glycyl-N-[(2S)-3-methyl-1-oxo-2-butanyl]-L-valinamide] (Boc-Gly-Val-Val-aldehyde) the inhibition at 10 µM [1, 5] was 105% and the viability at 48 h, 10 µM [2] was 106%.

With `COc1ccc(Cl)cc1NC(=O)Nc1cc(C)nc2ccccc12` [TCMDC-125497] the “Parasite inhibition (%)” value [1, 5] was 106%, the “Host Viability (%)” value (Vero cells; 10 µM) was 82% and the “Parasite inhibition (%)” value [3, 9] was 20%. For the same compound, the “Parasite inhibition (%)” value [3, 10] was 113%, the “Host cell viability (%)” value (HFF cells; 2.5 µM) was 99% and the “Host cell viability (%)” value (HFF cells; 25 µM) was 78%.

In the case of `COc1ccc(C(=O)/C(Cc2cc(OC)c(OC)c(OC)c2)=C(\C(=O)O)c2ccc3c(c2)OCO3)cc1` [(2Z)-2-(1,3-Benzodioxol-5-yl)-4-(4-methoxyphenyl)-4-oxo-3-(3,4,5-trimethoxybenzyl)-2-butenoic acid], the inhibition at 10 µM [1, 5] is reported as 93% and the viability at 48 h, 10 µM [2] is reported as 85%.

In the case of `OCCN1CCN(CCCN2c3ccccc3Sc3ccc(C(F)(F)F)cc32)CC1` [FLUPHENAZINE], the viability at 48 h, 10 µM [2] is reported as 83%, the viability at 48 h, 2.5 µM ([4]; Host cell viability (%)) is reported as 104% and the viability at 48 h, 25 µM ([4]; Host cell viability (%)) is reported as 84%.

`COc1ccc2[nH]c([S+]([O-])Cc3ncc(C)c(OC)c3C)nc2c1` (centres unmarked) [Omeprazole] gave an inhibition at 10 µM ([1]; Vero) of 92%, a viability at 48 h, 10 µM [2] of 97% and an inhibition at 2.5 µM ([3]; HFF) of 4.3%. The inhibition at 25 µM ([3]; HFF) was 44%, the viability at 48 h, 2.5 µM ([4]; Host cell viability (%)) was 100% and the viability at 48 h, 25 µM ([4]; Host cell viability (%)) was 100%.

For `OCCN1CCN(CCCN2c3ccccc3Sc3ccc(Cl)cc32)CC1` [Perphenazine], the inhibition at 10 µM [1, 5] was 104%, the viability at 48 h, 10 µM [2] was 84% and the inhibition at 2.5 µM [3, 6] was -6.8%. For the same compound, the inhibition at 25 µM [3, 10] was 112%, the viability at 48 h, 2.5 µM ([4]; Host cell viability (%)) was 95% and the viability at 48 h, 25 µM ([4]; Host cell viability (%)) was 65%.

Work on `Clc1ccc(C(Cn2ccnc2)OCc2c(Cl)cccc2Cl)c(Cl)c1` (centres unmarked) [Isoconazole] yielded an inhibition at 10 µM [1, 5] of 104% and a viability at 10 µM [2, 12] of 101%.

For PENITREM A, the “Parasite inhibition (%)” value [1, 5] was 105%, the “Parasite inhibition (%)” value [3, 9] was 6.0% and the “Parasite inhibition (%)” value [3, 10] was 110%.

In the case of `O=C(/C=C/c1ccc(O)c(O)c1)c1ccc(O)cc1O` [Butein], the inhibition at 10 µM [1, 5] is reported as 96%, the viability at 48 h, 10 µM [2] is reported as 93% and the inhibition at 2.5 µM [3, 6] is reported as -11%. It also gave an inhibition at 25 µM [3, 7] of 110%, a viability at 48 h, 2.5 µM ([4]; Host cell viability (%)) of 102% and a viability at 48 h, 25 µM ([4]; Host cell viability (%)) of 91%.

With `Cc1ccc(C(=O)c2cc(/C=C/C(=O)NO)n(C)c2)cc1` [MC-1293] the “Parasite inhibition (%)” value [1, 5] was 103%, the “Host Viability (%)” value (Vero cells; [8]) was 85% and the “Parasite inhibition (%)” value [3, 9] was 12%. The “Parasite inhibition (%)” value [3, 10] was 95%, the “Host cell viability (%)” value (HFF cells; 2.5 μM, 48 h, HFF cells) was 98% and the “Host cell viability (%)” value (HFF cells; [11]) was 95%.

Compound `Clc1ccccc1C(c1ccccc1)(c1ccccc1)n1ccnc1` [Clotrimazol] has an inhibition at 10 µM [1, 5] of 99% and a viability at 48 h, 10 µM [2] of 94%.

In the case of `CC[N+](C)(CC)CCC[n+]1c(-c2ccccc2)c2cc(N)ccc2c2ccc(N)cc21.[I-].[I-]` [Propidium Iodide], the “Parasite inhibition (%)” value [1, 5] is reported as 91% and the “Host Viability (%)” value (Vero cells; 10 µM) is reported as 91%.
